We go through 1 compound from article PMC11363324 (ACS Central Science, 2024).

The test system of series [1] is C57BL/6J mice. The series is described as follows: animal or person. It counts as in vivo. The settings on record: Mus musculus, sc, read-out: antinociception ED50 (and 95% CI).
In series [2] the test system is C57BL/6J mice. Conditions: mouse, in vivo.

In general, ED50 refers to the midpoint of the dose-response relation.

SMILES strings stand for the structures.

Regarding `CN1CC[C@]23c4c5ccc(O)c4O[C@H]2[C@@H](O)C=C[C@H]3[C@H]1C5` [Morphine], the ED50 in the series with C57BL/6J mice [1] amounted to 4 mg/kg. For the same compound, in the series with C57BL/6J mice [2] (C57BL/6J), the “withdrawal: jumping frequency vs saline” value is given as “****p < 0.0001” and the “withdrawal: teeth chattering frequency vs saline” value was “***p = 0.0003”. Further, in the series on C57BL/6J mice [2], the “withdrawal: forepaw licking frequency vs saline” value was “significant” and the “withdrawal: rearing frequency vs saline” value is listed as “significant”.
